According to PubChem BioAssay (NCI):
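Dose response: 5 concentrations. Exposure: 48 h. Format: 96-well plates. Endpoint: linear interpolation; highest concentration if not reached. GI50 = concentration required for 50% inhibition of growth. TGI is the concentration that stops growth completely.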

Legend:
Experiment in all cases: inhibition of tumour cell growth, NCI panel, 48 h
MDA-MB-231 breast = tested on: MDA-MB-231 breast
U251 CNS = tested on: U251 CNS
MDA-MB-435 = tested on: MDA-MB-435
NCI-H226 lung = tested on: NCI-H226 lung
MCF7 breast = tested on: MCF7 breast
HCC-2998 colon = tested on: HCC-2998 colon
HOP-92 NSCLC = tested on: HOP-92 NSCLC
SF-268 CNS = tested on: SF-268 CNS
TK-10 renal = tested on: TK-10 renal
T-47D breast = tested on: T-47D breast

Structure (SMILES)	GI50 (MDA-MB-231 breast)	TGI (MDA-MB-231 breast)	GI50 (U251 CNS)	TGI (U251 CNS)	GI50 (MDA-MB-435)	TGI (MDA-MB-435)	GI50 (NCI-H226 lung)	TGI (NCI-H226 lung)	GI50 (MCF7 breast)	TGI (MCF7 breast)	GI50 (HCC-2998 colon)	TGI (HCC-2998 colon)	GI50 (HOP-92 NSCLC)	TGI (HOP-92 NSCLC)	GI50 (SF-268 CNS)	TGI (SF-268 CNS)	GI50 (TK-10 renal)	TGI (TK-10 renal)	GI50 (T-47D breast)	TGI (T-47D breast)
CC1CN(S(=O)(=O)c2oc(-c3ccc(Cl)cc3)nc2C#N)CC(C)O1 (centres undefined)	1.91 µM	3.8 µM	9.4 µM	22.7 µM	1.89 µM	4.01 µM	18.1 µM	39.9 µM	1.59 µM	3.94 µM	2.27 µM	5.43 µM	1.78 µM	3.45 µM	1.93 µM	4.14 µM	1.75 µM	3.26 µM	2.3 µM	6.24 µM
CC(C)c1nc(N(C)S(C)(=O)=O)nc(-c2ccc(F)cc2)c1/C=C/[C@@H](O)C[C@@H](O)CC(=O)O	4.81 µM	42 µM	18.9 µM	> 100 µM	79.9 µM	> 100 µM	> 100 µM	> 100 µM	> 100 µM	> 100 µM	> 100 µM	> 100 µM	0.467 µM	6.68 µM	28.3 µM	> 100 µM	> 100 µM	> 100 µM	> 100 µM	> 100 µM
Cc1ncc(C(=O)Nc2ccc(CN3CCN(C)CC3)c(C(F)(F)F)c2)cc1C#Cc1ccc(N)nc1	0.158 µM	0.711 µM	0.483 µM	4.95 µM	0.155 µM	0.789 µM	0.206 µM	1.66 µM	0.903 µM	4.89 µM	0.998 µM	4.66 µM	0.116 µM	0.935 µM	0.258 µM	1.43 µM	0.654 µM	4.39 µM	1.08 µM	7.2 µM
C#CCNC(=S)N/N=C(\C)c1ccccn1	0.292 µM	> 100 µM	0.408 µM	> 100 µM	3.1 µM	> 100 µM	0.406 µM	3.33 µM	0.0792 µM	> 100 µM	1.24 µM	> 100 µM	0.28 µM	> 100 µM	0.517 µM	> 100 µM	3.07 µM	> 100 µM	0.0933 µM	> 100 µM
O=[N+]([O-])c1nccn1CC(O)CN1CCCCC1 (centres undefined)		> 100 µM		> 100 µM		> 100 µM		> 100 µM		> 100 µM		> 100 µM		> 100 µM		> 100 µM		> 100 µM		> 100 µM
C=C/C(C)=C/C[C@]1(C)[C@H](C)[C@@H](OC(=O)CCC)[C@H](O)[C@@]23C(=C[C@H](OC)C[C@@H]12)[C@@H](OC(=O)CCC)O[C@H]3OC(C)=O	0.857 µM	2.45 µM	1.32 µM	2.98 µM	0.298 µM	0.95 µM	0.38 µM	1.34 µM	1.16 µM	2.91 µM	0.238 µM	0.71 µM	0.303 µM	1.13 µM	1.58 µM	3.25 µM	0.181 µM	0.411 µM	0.36 µM	1.71 µM
COc1cc2ncnc(-n3ncc4cc(NC(=O)Nc5ccc(Cl)c(Cl)c5)ccc43)c2cc1OC	1.96 µM	4.03 µM	1.5 µM	3.06 µM	1.84 µM	4.29 µM	2.45 µM	4.8 µM	1.85 µM	4.56 µM	2.61 µM	8.87 µM	1.92 µM	4.19 µM	2.44 µM	7.32 µM	2.38 µM	6.45 µM	2.39 µM	7.17 µM
CN(C)c1ccc(/C=C2\N=C(c3ccccc3)N(c3cc(C(F)(F)F)ccc3Cl)C2=O)cc1	> 100 µM	> 100 µM	> 94.7 µM	> 100 µM	> 100 µM	> 100 µM	> 90.4 µM	> 100 µM	99.8 µM	> 100 µM	> 100 µM	> 100 µM	> 87.1 µM	> 100 µM	> 100 µM	> 100 µM	> 100 µM	> 100 µM	> 100 µM	> 100 µM
Cn1cccc1-c1cc(-c2ccccc2)[nH]c(=O)c1C#N	> 100 µM	> 100 µM	> 100 µM	> 100 µM	> 100 µM	> 100 µM	> 100 µM	> 100 µM	> 100 µM	> 100 µM	> 100 µM	> 100 µM		0.0283 µM	> 100 µM	> 100 µM	> 100 µM	> 100 µM	> 100 µM	> 100 µM
O=C1C2=C(C(=O)c3cnccc31)C1C=CC2CC1 (centres undefined)	2.45 µM	7.61 µM	1.76 µM	3.19 µM	1.8 µM	3.55 µM	5.74 µM	16.2 µM	1.81 µM	3.74 µM	8.74 µM	21.2 µM	2.62 µM	8.8 µM	1.9 µM	3.84 µM	5.54 µM	10.4 µM	0.374 µM	1.5 µM
